Data on ten compounds can be found in patent US6177542A, “Integrin-binding peptides” (The Burnham Institute, priority 1997, dated 2001).

Positions of bridges follow the written chain, without caps; N, C: chain ends. Residues, ends and D or L forms follow the SMILES beside them. No end group written: not given here. Some results are limits rather than exact numbers.

The target of assay [1] is T1, α5β1 integrin (Homo sapiens, UniProt P05556+P08648).
T1 construct: The α5β1 and αvβ3 integrins were isolated from human placenta; from tissue; host or cells: human placenta
T1 sequence (P08648 42-894 limits assumed): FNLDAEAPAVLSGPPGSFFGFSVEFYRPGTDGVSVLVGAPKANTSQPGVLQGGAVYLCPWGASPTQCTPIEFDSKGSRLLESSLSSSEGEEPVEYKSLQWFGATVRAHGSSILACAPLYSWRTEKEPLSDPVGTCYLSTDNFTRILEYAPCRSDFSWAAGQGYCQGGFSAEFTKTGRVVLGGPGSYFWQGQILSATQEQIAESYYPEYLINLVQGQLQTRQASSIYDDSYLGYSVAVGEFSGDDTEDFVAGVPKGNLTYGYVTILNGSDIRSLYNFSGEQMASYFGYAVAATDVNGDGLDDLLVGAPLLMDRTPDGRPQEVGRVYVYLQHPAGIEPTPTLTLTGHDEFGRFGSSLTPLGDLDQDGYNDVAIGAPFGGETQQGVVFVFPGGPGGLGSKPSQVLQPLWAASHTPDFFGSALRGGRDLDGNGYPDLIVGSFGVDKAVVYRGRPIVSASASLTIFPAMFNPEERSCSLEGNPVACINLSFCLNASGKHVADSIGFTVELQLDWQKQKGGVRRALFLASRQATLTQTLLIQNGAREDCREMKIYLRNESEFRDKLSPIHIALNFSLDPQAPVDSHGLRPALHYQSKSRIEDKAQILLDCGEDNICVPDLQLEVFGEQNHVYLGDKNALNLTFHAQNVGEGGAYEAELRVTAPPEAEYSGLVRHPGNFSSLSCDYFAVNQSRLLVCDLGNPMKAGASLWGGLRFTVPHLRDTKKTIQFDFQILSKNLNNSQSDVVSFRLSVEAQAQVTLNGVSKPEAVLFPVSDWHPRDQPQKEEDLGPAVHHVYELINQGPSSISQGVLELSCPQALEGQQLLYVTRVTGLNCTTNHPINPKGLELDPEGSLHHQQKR
T1 sequence (P08648 895-1049 limits assumed): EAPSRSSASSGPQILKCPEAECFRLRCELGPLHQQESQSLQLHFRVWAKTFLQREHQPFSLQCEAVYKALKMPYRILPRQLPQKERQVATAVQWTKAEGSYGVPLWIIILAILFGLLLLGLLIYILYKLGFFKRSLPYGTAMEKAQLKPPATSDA
T1 sequence (P05556 21-798): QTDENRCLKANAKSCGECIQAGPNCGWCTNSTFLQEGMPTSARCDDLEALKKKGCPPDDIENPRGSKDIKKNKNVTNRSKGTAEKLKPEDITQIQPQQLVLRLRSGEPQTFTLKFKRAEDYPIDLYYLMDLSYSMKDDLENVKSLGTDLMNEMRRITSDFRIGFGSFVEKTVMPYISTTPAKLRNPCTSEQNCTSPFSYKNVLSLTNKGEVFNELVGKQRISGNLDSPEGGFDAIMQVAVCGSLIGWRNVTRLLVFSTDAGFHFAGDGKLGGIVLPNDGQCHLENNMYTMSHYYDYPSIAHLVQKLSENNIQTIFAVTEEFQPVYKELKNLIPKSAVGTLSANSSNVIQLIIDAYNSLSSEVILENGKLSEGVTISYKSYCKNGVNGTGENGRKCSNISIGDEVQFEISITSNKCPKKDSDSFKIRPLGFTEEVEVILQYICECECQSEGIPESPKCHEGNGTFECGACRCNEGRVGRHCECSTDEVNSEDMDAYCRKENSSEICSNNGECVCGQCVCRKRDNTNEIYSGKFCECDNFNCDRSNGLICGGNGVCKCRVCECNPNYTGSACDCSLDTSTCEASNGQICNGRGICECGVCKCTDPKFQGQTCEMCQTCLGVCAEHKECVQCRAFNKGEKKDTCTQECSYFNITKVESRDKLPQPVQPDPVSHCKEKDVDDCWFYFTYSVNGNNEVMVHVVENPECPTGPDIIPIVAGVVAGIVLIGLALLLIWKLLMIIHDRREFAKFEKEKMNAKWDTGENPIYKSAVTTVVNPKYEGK
The assay can be described thus: phage attachment assay: inhibition of CRGDCL-phage binding to α5β1 integrin. The settings on record: FIG. 1. The procedure:
(§1) The α5β1 and αvβ3 integrins were isolated from human placenta as described in Pytela et al., PNAS USA.
CRGDCL-displaying phage were incubated for 1 hour in the presence of various concentrations of the peptides to be tested in microtiter wells coated with the α5β1 integrin. […] Specific binding was quantitated by added K9lkan bacteria directly to the wells and growing the bacteria overnight at room temperature in the presence of tetracycline as described in Smith and Scott, Meth. Enzymol. […] The data represent means from duplicate wells.

For assay [2], the target named is T1, α5β1 integrin. The assay can be described thus: inhibition of ELRGDGW-containing phage binding to α5β1 integrin. The settings on record: 1 hour at room temperature. The protocol:
Phage carrying the insert ELRGDGW (SEQ ID NO 24) were added together with various concentrations of the cyclic peptide […] (SEQ ID NO:03) into microliter wells coated with the α5β1 integrin and incubated for 1 hour at room temperature. The 15 phage which remained bound to the wells were quantitated by growing the K9lkan bacteria in the wells overnight at room temperature in the presence of tetracycline. The absorbance that indicates the growth of bacteria infected with phage was measured at 600 nm with an ELISA reader.

Assay [3] deals with T2, αvβ3 integrin (Homo sapiens, UniProt P05106+P06756).
T2 construct: The α5β1 and αvβ3 integrins were isolated from human placenta; from tissue; host or cells: human placenta
T2 sequence (P06756 31-889 limits assumed): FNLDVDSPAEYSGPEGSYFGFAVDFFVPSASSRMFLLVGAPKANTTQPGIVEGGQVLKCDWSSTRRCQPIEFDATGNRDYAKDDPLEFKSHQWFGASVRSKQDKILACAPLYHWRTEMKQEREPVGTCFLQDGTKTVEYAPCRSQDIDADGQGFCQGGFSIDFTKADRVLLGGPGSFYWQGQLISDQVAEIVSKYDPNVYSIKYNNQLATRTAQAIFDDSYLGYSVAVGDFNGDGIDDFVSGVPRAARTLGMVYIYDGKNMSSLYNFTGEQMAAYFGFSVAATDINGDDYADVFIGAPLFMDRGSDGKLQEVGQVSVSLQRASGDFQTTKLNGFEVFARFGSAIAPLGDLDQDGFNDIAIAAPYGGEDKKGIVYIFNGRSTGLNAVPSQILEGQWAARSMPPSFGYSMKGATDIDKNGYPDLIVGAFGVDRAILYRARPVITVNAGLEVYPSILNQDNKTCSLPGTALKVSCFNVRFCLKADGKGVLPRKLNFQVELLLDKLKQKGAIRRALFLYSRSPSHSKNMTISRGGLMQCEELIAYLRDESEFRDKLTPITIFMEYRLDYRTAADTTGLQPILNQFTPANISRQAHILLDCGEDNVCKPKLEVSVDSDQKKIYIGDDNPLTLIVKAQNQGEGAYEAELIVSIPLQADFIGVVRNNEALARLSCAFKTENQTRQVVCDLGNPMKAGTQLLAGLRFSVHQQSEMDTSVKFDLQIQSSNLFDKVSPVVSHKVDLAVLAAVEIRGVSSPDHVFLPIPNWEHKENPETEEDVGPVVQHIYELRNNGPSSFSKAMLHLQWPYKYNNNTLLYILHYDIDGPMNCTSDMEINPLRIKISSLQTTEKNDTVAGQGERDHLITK
T2 sequence (P06756 891-1048 limits assumed): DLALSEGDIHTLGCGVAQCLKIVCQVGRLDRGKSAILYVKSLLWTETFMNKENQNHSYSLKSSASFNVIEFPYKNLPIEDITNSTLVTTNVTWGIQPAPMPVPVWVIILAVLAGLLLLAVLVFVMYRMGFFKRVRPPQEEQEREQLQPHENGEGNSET
T2 sequence (P05106 27-788): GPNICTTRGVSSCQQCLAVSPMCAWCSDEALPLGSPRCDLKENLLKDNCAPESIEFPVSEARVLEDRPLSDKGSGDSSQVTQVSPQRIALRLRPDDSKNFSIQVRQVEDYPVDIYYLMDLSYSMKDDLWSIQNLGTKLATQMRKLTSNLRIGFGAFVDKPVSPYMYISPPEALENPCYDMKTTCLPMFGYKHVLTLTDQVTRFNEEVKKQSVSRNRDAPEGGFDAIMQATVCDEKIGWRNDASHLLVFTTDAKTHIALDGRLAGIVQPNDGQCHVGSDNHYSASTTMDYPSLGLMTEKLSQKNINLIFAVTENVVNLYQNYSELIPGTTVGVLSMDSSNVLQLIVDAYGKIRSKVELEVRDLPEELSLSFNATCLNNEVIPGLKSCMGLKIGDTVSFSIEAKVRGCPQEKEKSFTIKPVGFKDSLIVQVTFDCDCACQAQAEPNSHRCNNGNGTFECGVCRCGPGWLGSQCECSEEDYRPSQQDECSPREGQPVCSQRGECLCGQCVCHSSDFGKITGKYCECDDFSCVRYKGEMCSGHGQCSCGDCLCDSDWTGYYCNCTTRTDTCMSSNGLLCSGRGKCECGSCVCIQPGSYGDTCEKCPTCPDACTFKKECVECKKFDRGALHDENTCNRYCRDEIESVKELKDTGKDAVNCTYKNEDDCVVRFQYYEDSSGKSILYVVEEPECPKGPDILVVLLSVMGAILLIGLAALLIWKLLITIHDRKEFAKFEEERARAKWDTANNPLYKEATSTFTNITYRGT
The assay can be described thus: inhibition of CRGDCL-phage binding to αvβ3. The settings on record: means from duplicate wells.
Source text: as §1
(§2) Selected peptides were studied for their ability to bind to the αvβ3 integrin by using integrin bound on anti-αv or anti-β3 antibody coating. Microliter wells were coated with β3 antibodies to bind specifically the αvβ3 integrin. […] The bound phage were eluted with low pH buffer and quantitated by infection of bacteria as described above. The IC50 values are means from duplicate wells. ND means not determined.

Assay [4] has as its target T3, α5β1 (UniProt G3HZ55+P08648).
T3 construct: expressed in transfected cells; host or cells: CHO B2/α27 clone
The assay can be described thus: cell attachment assay: α5-transfected CHO cells B2/α27 to fibronectin. In kind it is cell-based. The settings on record: FIG. 4A, read-out: IC50, inhibition of α5β1-mediated cell attachment to fibronectin. The text has this:
(§3) CHO cell lines expressing α5β1 (the B2/α27 clone, as described in Bauer et al., J. Cell. Biol. 116:477-487 (1992)), or CHO cell lines expressing αvβ1 (B2/v7 clone, described in Zhang et al., J. Cell. Biol. 122:235-242 (1993)) were used in these assays. Cell lines expressing fibronectin-binding integrins were used to determine peptide activities against these integrins in the cell attachment assay described in Ruoslahti et al. Methods Enzymol. 144:803-831 […]. The vitronectin-binding integrins αvβ5 and αvβ3 were assayed using the cell lines HT29 and IMR90, respectively, which were described in Koivunen et al. J. Biol. Chem. 268:205-210 (1993).
(§4) Human plasma fibronectin and vitronectin were iodinated as described in Morla and Ruoslahti, J. Cell Biol. 118:421-429 (1992), which is incorporated herein by reference. […] The input ell number was approximately 2×10^4 and attachment was quantitated by staining with 0.1% amido black.
(§5) Selected peptides were tested for inhibitory activity in cell attachment assays. The assays are described in detail in the Example above. The cells used in the various experiments were: (A) α5 -transfected CHO cells B2/α27 (α5β1); αv -transfectedCHO cells 32/v7 (αvβ1); (C) HT29 cells (αvβ5); (D) IMR90 cells (αvβ3). […]

Assay [5] has as its target T2, αvβ3 integrin. The assay can be described thus: inhibition of NGRAHA-phage binding to αvβ3. The settings on record: means from duplicate wells.
Source text: as §1, §2

Assay [6] relates to α5β1 and αvβ3 integrins. The assay can be described thus: competitive binding assays for relative binding affinities of peptide motifs. More on the design: species or system human. The settings on record: for relative binding affinity class (in words): competitive binding assays.
For assay [7], the target named is T1, α5β1 integrin. The assay can be described thus: fibronectin binding assay: inhibition of 125I-labeled fibronectin binding to immobilized α5β1. The settings on record: FIG. 2, FIG. 3. The protocol:
Microtiter wells were coated with anti-α5 specific antibody by incubating overnight at an antibody concentration of 10 μg/ml, followed by BSA. α5β1 integrin then was bound to α5specific antibody-coated wells by incubating 300 μl of a placental extract per well in TBS buffer containing 0.1 M octylglucoside, 1 mM CaCl2, 1 mM MnCl2 and proteinase inhibitors overnight at 4° C. according to Pytela et al., Methods Enzymol 144: 475-489 (1987), which is herein incorporated by reference. Alternatively, the α5β1 integrin was directly coated on plastic as described above. The wells were extensively washed with TBS containing 0.1% NP-40™. ^125 I-labeled fibronectin (100,000 cpm per well) was incubated in the presence of competing peptides for 1 hour at 25° C. in 100 μl volume of TBS containing 0.1% NP-40™ detergent and 1 mM MnCl 2. After repeated washing, the radioactivity remaining bound was quantitated with a gamma counter.
Next, three of these four peptides were compared for efficiencies in inhibiting binding of ^125 I-labeled fibronectin to immobilized α5β1, according to the fibronectin binding assay described in the Example above. Anti-α5 antibodies were used to tether α5β1 onto microliter wells. ^125 I-labeled fibronectin was incubated in the coated wells in the presence of competing peptides for 1 hour. After washing, the radioactivity that remained bound was determined. The data represent means from duplicate wells.

For assay [8], the target named is T2, αvβ3 integrin. The assay can be described thus: binding of peptides to αvβ3 integrin bound on anti-αv or anti-β3 antibody coating. From the text:
Selected peptides were studied for their ability to bind to the αvβ3 integrin by using integrin bound on anti-αv or anti-β3 antibody coating. Microliter wells were coated with β3 antibodies to bind specifically the αvβ3 integrin. The input of CRGDCL (SEQ ID NO:01)-containing phage and NGRAHA (SEQ ID NO:04)-containing phage were 2×10^12 and 5×10^12 TU per well, respectively. The bound phage were eluted with low pH buffer and quantitated by infection of bacteria as described above. The IC50 values are means from duplicate wells. ND means not determined.

Assay [9] concerns the target T4, αvβ5 (Homo sapiens, UniProt P06756+P18084).
T4 construct: endogenous in cells; host or cells: HT29
The assay can be described thus: cell attachment assay: HT29 cells to vitronectin. It is filed as cell-based.
Source text: as §3, §4, §5

T4 sequence (P06756 31-889 limits assumed): as the sequence (P06756 31-889 limits assumed) above
T4 sequence (P06756 891-1048 limits assumed): as the sequence (P06756 891-1048 limits assumed) above
T4 sequence (P18084 24-799): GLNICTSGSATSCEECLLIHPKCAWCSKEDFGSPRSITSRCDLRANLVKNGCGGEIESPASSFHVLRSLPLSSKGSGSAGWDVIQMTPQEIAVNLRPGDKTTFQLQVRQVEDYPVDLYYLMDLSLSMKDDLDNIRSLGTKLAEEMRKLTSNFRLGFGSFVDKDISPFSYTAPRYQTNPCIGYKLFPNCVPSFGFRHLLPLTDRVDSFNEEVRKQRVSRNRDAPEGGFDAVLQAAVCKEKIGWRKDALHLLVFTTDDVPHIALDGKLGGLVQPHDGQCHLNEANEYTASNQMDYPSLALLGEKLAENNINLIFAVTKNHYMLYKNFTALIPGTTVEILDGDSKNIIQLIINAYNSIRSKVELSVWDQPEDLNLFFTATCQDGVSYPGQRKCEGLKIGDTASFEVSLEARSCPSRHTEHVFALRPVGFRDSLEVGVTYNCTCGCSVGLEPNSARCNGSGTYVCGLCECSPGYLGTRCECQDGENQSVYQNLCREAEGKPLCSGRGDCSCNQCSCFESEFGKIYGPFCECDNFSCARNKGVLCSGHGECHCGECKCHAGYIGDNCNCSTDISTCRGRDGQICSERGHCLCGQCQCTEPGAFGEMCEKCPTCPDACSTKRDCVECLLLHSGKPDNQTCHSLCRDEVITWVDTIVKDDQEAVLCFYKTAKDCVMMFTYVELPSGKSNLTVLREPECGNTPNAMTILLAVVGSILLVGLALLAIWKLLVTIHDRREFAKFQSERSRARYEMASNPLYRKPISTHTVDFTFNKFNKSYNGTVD

With `CC(C)C[C@H](NC(=O)[C@@H]1CSSC[C@H](NC(=O)[C@H](C)NC(=O)CN)C(=O)N[C@@H](CCCNC(=N)N)C(=O)NCC(=O)N[C@@H](CC(=O)O)C(=O)N1)C(=O)NCC(=O)N[C@@H](C)C(=O)O` [GAC*RGDC*LGA] (H-GACRGDCLGA-OH; disulfide 3-7), the IC50 was 0.02 µM in assay [1] (1 hour, means from duplicate wells, read-out: IC50 (half-maximal inhibitory concentration), inhibition of CRGDCL-phage binding to α5β1); around 0.5 µM in assay [2]; 0.1 µM in assay [3]; 100 µM in assay [4].
`N=C(N)NCCC[C@H](NC(=O)CNC(=O)[C@H](CC(=O)O)NC(=O)[C@@H](N)CO)C(=O)O` [SDGR, reference compound] (H-SDGR-OH) returned an IC50 in assay [5] above 100 µM.
For the compound “CRGDC (disulfide 1-5 (inferred)) [cyclic peptide motif]”, the “relative binding affinity class (in words)” value in assay [6] is “High affinity”.
Turning to CRGDCL (disulfide 1-5 (inferred)), the “activity in inhibiting 125I-fibronectin binding to α5β1 (in words)” value in assay [7] is on record as “very effective”. The “binding to αvβ3 (in words)” value in assay [8] is listed as “bound”. Moreover, the “binding affinity compared with similar linear peptides, as judged by the IC50 value” in [6] (both α5β1 and αvβ3 integrins) is “about 10 times”. For the same compound, the “relative binding affinity class (in words)” value in assay [6] is “High affinity”.
Consider CVLNGRME, for which the “relative binding affinity class (in words)” value in [6] is listed as “moderate affinities”.
Consider DGRAHA [DGRAHA], for which, in [5], the IC50 was determined as 100 µM. Besides, in [9], the “IC50 against αvβ5 compared with the standard GRGDSP” value was “equal to the standard GRGDSP”.
Take GATIRSVDGA: the IC50 in assay [3] is around 100 µM.
Regarding NGRAHA [NGRAHA], the IC50 in assay [1] (CRGDCL-phage, α5β1, read-out: IC50 in the phage assay (unit inferred)) was found to be 30 µM; in [3] it was 200 µM; in [5], 30 µM. Besides, in assay [7], the “activity in inhibiting 125I-fibronectin binding to α5β1 (in words)” value is on record as “active”.
Consider “SDGRAHS (SDGRAHA) [DGRAHA with a serine residue included at the amino terminus]”, for which the “activity in inhibiting 125I-fibronectin binding to α5β1 (in words)” value in [7] is recorded as “essentially devoid of activity”.
On to SRRGDL [RGD peptide], for which the “binding to αvβ3 (in words)” value in [8] is on record as “bound”.
